Here are results for 18 compounds from ChEMBL document CHEMBL5614449, “Open Source Code Contributions to Global Health: The Case of Antimalarial Drug Discovery” (ACS Med Chem Lett, 2024).

Where only a bound is given, the exact number is not on record here.

The test system of the assay is Plasmodium. Kind of assay: Antiplasmodial activity against Plasmodium. In kind it is functional, organism-based.

Usually IC50 stands for the point on the concentration scale where inhibition reaches its midpoint. Regarding `COC(COc1cncc2nnc(-c3ccc(OC(F)F)cc3)n12)c1ccc(OC(F)F)cc1` (stereo not drawn), the IC50 was 77 nM.
As for `FC(F)Oc1ccc(-c2nnc3cncc(OCc4cccc(Br)c4)n23)cc1`, the concentration for half-maximal inhibition (IC50) was determined as 670 nM.
`FC(F)Oc1ccc(-c2nnc3cncc(OCc4cccc(C(F)(F)F)c4)n23)cc1`: the IC50 turned out to be 390 nM.
Regarding `FC(F)Oc1ccc(-c2nnc3cncc(OCc4csc(C(F)(F)F)c4)n23)cc1`, the IC50 was 2460 nM.
`Fc1cccc(OCCOc2cncc3nnc(-c4ccc(OC(F)F)cc4)n23)c1` displayed a half-inhibitory concentration (IC50) of 1350 nM.
Consider `Fc1cc2c(cc1F)C(COc1cncc3nnc(-c4ccc(OC(F)F)cc4)n13)C2` (stereo not drawn), for which inhibition was half-maximal at 480 nM (IC50).
As for `O=[N+]([O-])c1cccc(CCOc2cncc3nnc(-c4ccc(OC(F)F)cc4)n23)c1`, the IC50 stood at 250 nM.
With `FC(F)Oc1ccc(-c2nnc3cncc(OCc4ccc(C(F)(F)F)cc4)n23)cc1`, the half-inhibitory concentration (IC50) was determined as 5270 nM.
In turn, `Fc1cccc(F)c1COc1cncc2nnc(-c3ccc(OC(F)F)cc3)n12` displayed a half-inhibitory concentration (IC50) of 4080 nM.
`FC(F)Oc1ccc(-c2nnc3cncc(OCc4cnccc4C(F)(F)F)n23)cc1` displayed an IC50 of 5900 nM.
The figure for `FC(F)Oc1ccc(-c2nnc3cncc(OCc4ccccc4C(F)(F)F)n23)cc1` is 890 nM; for `FC(F)Oc1ccc(-c2nnc3cncc(OCc4cc(OC(F)F)ccn4)n23)cc1` it is 5040 nM; for `FC(F)Oc1ccc(-c2nnc3cncc(OCc4ccccc4)n23)cc1` it is 1120 nM.
Compound `FC(F)Oc1ccc(-c2nnc3cncc(OCc4cc5c(cc4Cl)OCO5)n23)cc1` yielded an IC50 above 25000 nM.
The result for `FC(F)Oc1ccc(-c2nnc3cncc(OCc4ccc5c(c4)OCO5)n23)cc1` reads above 10000 nM; that for `COC(COc1cncc2nnc(-c3ccc(OC(F)F)cc3)n12)c1ccccc1` (stereo not drawn), 110 nM; that for `FC(F)Oc1ccc(-c2nnc3cncc(OCCCC(F)(F)F)n23)cc1`, 410 nM.
`FC(F)Oc1ccc(-c2nnc3cncc(OCCc4ccccc4)n23)cc1` returned a half-maximal inhibitory concentration (IC50) of 170 nM.
